US11406649B2, “Treatment of upper aerodigestive tract disorders and cough” (IVIEW THERAPEUTICS, INC., priority 2018, dated 2022)
Entries after “also recorded” stand apart in the source; their conditions may differ.

What was measured:
[1] = tested on: Oral Cavity and Pharynx; experiment: Sensory qualities of compounds in syrup applied to base of tongue of volunteers; assay type: in vivo, human
Protocol: The DIPA compounds was 5 mg/mL in cherry-flavored syrup in a volume of 0.8 mL per dose. The sensory effect were recorded every 5 min for 1 hr.
Tests were on four volunteers, with 3 to 5 trials per substance. Compounds were prepared in cherry-flavored syrup at 5 mg/mL and administered ˜0.8 mL per dose with a 2 mL plastic vial to the base of the tongue. The subjects asked to rate the sensations for cooling intensity, cold discomfort and adverse taste.
The concentration of the DIPA compounds was 5 mg/mL in cherry-flavored syrup administered in a volume of 0.8 mL per dose. The sensory effect were recorded every 5 min for 1 hr.

[2] = tested on: Oral Cavity and Pharynx; experiment: as above; assay type: in vivo, human; settings: concentration increased to 15 mg/mL, 0.8 mL per dose
[3] = Water solubility of 1-dialkylphosphorylalkanes; assay type: physicochemical
Excerpt: The DIPA compounds are colorless liquids with a density less than water. These structures differ from those described by Rowsell and Spring U.S. Pat. No. 4,070,496 because '496 structures have their “head” (phosphine oxide group) covered by larger, more lipophilic groups. […] The applicant synthesized these analogs (which are achiral, by contrast to the structures of '496 which are >95% chiral). […] This increased water-solublility is striking (Table 3). […] The DIPA analogs are now mobile in the extracellular fluids and permeate between cells to access nerve endings in the stratum basale.

[4] = tested on: respiratory syncytial virus (RSV) induced cough; experiment: Mouse cough model of respiratory syncytial virus infection; assay type: in vivo; settings: 0.5 mg in 25 μL intranasally per mouse, 10 min before count
[5] = tested on: capsaicin induced coughing; experiment: Capsaicin induced coughing in an animal model; settings: in vivo
[6] = tested on: upper aerodigestive tract discomfort; experiment: Case studies of DIPA-1-9 syrup in volunteers with upper aerodigestive tract discomfort; assay type: in vivo, human
Excerpt: The rationale and data set for selecting DIPA-1-9 in syrup as a treatment agent for upper aerodigestive discomfort have been described. […] The coolness spreads to the rest of throat and intensifies, as if a spoonful of rich ice cream had been swallowed. […] The cooling sensation can be used to facilitate mucus expectoration from the airways. Also relieved is the sense of suffocation when lying down to sleep in a subject that has dyspnea.

[7] = tested on: eyelids of patients with dry eye disorder; experiment: Application to eyelids of patients with dry eye disorder; assay type: in vivo, human
[8] = tested on: oropharynx and esophagus; experiment: Sensory events and cold discomfort of compounds on throat, chest and body; settings: for taste: oral cavity / tongue
Excerpt: The terms “icy cold” is used to describe this adverse event in the throat.
Most likely, the compound rapidly distributed and activated cold sensations in the eosophageal lining.

[9] = target: cloned hTRPM8 channel (Homo sapiens (Human), UniProt Q7Z2W7); experiment: TRPM8 agonist activity, Fluo-8 calcium FLIPR assay (ChanTest); assay type: cell-based; settings: L-menthol = 1.0
Chain of cloned hTRPM8 channel (Q7Z2W7 whole entry): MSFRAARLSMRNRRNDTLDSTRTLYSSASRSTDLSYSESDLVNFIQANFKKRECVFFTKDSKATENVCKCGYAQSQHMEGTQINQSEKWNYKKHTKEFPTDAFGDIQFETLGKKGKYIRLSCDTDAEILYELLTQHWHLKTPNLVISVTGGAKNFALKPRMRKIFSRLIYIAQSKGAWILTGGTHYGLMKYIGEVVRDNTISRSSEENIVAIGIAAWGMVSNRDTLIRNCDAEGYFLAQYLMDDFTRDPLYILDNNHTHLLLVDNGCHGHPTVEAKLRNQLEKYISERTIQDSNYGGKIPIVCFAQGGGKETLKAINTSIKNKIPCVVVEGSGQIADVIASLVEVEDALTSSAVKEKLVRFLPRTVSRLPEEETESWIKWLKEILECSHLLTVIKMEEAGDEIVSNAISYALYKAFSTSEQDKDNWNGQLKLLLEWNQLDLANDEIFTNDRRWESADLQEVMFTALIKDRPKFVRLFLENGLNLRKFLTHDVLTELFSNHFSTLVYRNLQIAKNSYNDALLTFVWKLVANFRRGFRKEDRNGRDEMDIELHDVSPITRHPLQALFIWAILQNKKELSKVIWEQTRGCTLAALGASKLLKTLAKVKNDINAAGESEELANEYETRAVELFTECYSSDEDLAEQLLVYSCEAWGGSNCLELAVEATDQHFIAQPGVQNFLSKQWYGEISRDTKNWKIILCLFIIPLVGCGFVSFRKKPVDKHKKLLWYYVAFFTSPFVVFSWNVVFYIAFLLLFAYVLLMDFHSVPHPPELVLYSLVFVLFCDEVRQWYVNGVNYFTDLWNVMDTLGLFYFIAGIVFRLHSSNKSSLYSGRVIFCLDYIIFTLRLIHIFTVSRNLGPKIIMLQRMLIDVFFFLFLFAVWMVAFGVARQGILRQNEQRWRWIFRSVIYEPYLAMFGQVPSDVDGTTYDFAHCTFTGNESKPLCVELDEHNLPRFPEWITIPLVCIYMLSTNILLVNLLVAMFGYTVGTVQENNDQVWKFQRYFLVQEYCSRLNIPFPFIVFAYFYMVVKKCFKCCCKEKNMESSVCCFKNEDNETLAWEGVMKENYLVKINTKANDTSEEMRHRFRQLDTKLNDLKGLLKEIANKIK
Protocol: In the first set of data, the potency and in vitro effects of test compounds were evaluated on cloned hTRPM8 channel (encoded by the human TRPM8 gene, expressed in CHO cells) using a Fluo-8 calcium kit and a Fluorescence Imaging Plate Reader (FLIPR^TETRA™) instrument. […] Test solutions were in a HEPES-buffered saline, in 384-well plates, and placed into the FLIPR instrument (Molecular Devices Corporation, Union City, Calif., USA). […] The test cells were Chinese Hamster Ovary (CHO) cells stably transfected with human TRPM8 cDNAs. Concentration-response data were analyzed via FLIPR Control software) and fitted to a Hill equation for the EC50.

[10] = tested on: rat skin; experiment: Skin irritation tests on rat skin; assay type: in vivo; set-up: key to Redness after 20 μL applied topically to skin (scale of 0 to +++): scale of 0 to +++; scale of 0 to +++; scale of 0 to +++; scale of 0 to +++
[11] = target: TRPV1 channels (human TRPV1 gene expressed in HEK293 cells) (Homo sapiens (Human), UniProt Q8NER1); experiment: Selectivity on TRPV1 channels; assay type: cell-based; settings: positive control capsaicin
Chain of TRPV1 channels (human TRPV1 gene expressed in HEK293 cells) (Q8NER1 whole entry): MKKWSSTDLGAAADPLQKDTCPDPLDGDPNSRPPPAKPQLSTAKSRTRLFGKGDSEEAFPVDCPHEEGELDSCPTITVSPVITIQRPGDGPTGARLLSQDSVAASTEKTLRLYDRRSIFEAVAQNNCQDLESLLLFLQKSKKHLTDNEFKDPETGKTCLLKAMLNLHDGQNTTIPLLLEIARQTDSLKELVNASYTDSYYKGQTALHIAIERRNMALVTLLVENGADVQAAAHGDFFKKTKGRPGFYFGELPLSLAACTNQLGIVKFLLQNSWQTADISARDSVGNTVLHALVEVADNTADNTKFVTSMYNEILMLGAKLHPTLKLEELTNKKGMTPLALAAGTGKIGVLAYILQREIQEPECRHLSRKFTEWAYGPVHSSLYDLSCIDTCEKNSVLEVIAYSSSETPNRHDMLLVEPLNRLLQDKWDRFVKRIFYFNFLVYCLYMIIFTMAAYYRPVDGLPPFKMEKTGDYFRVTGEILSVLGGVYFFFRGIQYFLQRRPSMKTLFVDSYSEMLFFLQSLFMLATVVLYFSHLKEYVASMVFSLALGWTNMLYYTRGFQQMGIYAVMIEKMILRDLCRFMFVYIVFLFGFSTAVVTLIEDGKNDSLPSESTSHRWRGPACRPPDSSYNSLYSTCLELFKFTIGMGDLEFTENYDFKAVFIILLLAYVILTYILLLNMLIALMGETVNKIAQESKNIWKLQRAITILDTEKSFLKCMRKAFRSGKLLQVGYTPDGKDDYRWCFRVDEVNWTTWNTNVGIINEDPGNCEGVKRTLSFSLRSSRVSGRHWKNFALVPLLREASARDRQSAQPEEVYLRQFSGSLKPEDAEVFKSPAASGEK
Excerpt: (§1) In a third set, the selectivity of the test compounds on TRPM8, TRPV1 channels (human TRPV1 gene expressed in HEK293 cells) and TRPA1 channels (human TRPA1 gene expressed in CHO cells) were examined.
(§2) The selectivity of DIPA-1-9 on TRP channel receptors, TRPM8, TRPA1 and TRPV1 is shown in FIG. 3 of Yang et. al. A novel TRPM8 agonist relieves dry eye discomfort. BMC Ophthalmology ([…]) 17: 101, and incorporated herein by reference. The applicant is a co-author of this publication.

[12] = target: TRPA1 channels (human TRPA1 gene expressed in CHO cells) (Homo sapiens (Human), UniProt O75762); experiment: Selectivity on TRPA1 channels; assay type: cell-based; settings: positive control mustard oil
Chain of TRPA1 channels (human TRPA1 gene expressed in CHO cells) (O75762 whole entry): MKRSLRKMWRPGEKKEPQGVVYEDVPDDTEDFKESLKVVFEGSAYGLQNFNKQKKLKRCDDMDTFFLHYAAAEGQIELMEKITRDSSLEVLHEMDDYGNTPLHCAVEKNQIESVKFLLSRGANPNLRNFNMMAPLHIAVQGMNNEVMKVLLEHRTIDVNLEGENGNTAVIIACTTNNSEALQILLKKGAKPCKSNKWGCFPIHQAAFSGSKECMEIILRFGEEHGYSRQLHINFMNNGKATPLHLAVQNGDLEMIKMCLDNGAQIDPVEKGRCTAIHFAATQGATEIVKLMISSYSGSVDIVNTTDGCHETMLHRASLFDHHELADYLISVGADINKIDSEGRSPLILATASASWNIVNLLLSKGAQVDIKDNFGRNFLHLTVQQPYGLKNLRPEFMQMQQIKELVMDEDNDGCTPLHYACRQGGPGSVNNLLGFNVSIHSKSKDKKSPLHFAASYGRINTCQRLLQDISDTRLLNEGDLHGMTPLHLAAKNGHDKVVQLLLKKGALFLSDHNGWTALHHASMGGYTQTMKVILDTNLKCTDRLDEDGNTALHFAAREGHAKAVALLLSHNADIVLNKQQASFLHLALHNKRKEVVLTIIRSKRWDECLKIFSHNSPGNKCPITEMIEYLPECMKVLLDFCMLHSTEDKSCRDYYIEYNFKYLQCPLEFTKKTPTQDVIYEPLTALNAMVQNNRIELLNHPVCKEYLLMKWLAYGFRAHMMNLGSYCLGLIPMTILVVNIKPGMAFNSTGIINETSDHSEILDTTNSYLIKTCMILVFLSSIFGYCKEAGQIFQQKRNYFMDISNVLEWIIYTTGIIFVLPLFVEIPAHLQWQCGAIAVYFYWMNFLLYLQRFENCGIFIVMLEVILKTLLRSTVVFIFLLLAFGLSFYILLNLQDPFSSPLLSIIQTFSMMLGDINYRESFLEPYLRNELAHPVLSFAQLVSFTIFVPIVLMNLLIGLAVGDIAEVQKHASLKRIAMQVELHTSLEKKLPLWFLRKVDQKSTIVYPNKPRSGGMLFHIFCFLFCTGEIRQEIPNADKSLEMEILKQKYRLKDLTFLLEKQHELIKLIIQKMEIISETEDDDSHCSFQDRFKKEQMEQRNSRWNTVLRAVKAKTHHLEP
Excerpt: as §1, §2

[13] = tested on: anesthetized rat; experiment: Blood pressure and heart rate after subcutaneous injection in anesthetized rat; assay type: in vivo; settings: injected subcutaneously
[14] = tested on: oral cavity; experiment: DIPA-1-9 sprayed into the mouth with aerosol sprayer
[15] = tested on: anesthetized rat; experiment: In vivo transdermal activity: shaking after topical application to abdominal skin of anesthetized rat; settings: pure compound 20 μL on abdominal skin, counted 40 min
Protocol: Shaking frequency was counted for 40 min after topical application.
The importance of water solubility for permeation was further illustrated in studies on the abdominal skin of anesthetized rat. […] The pharmacokinetic determinants of bioactivity are precise. Thus, for the avoidance of cold discomfort, DIPA-1-9 has to reach the receptors in the stratum basale but not “over-stimulate”.

[16] = 5 mg/mL in cherry-flavored syrup, ~0.8 mL
[17] = 10 subjects with cough, sprayer 5 mg/mL cherry syrup, 1 week

With CCCCCCCCCP(=O)(C(C)C)C(C)C [DIPA-1-9, 1-Di(isopropyl)-phosphinoyl-nonane] the “Adverse Taste” value [1, 16] was 0, the Discomfort [1, 16] was 0 and the Sensation [1, 16] was “cool”. For the same compound, the “persistence of general sense of refreshment in the throat” value ([1]; human, in vivo) was ≥ 3 h, the “pain or discomfort at increased concentration” value [2] was “did not produce icy cold or pain” and the “water solubility relative to prior art / di-sec-butyl or mixed isopropyl-sec-butyl analogs” value [3] was 10 ×. The solubility ([3]; water) was > 300 mg/mL, the cough frequency [4] was “significantly inhibited cough frequency” and the capsaicin induced coughing [5] was “inhibited capsaicin induced coughing”. The discomfort of satiety ([6]; 8 mg/mL in simple syrup, three over-weight individuals) was “instantly relieved”, the “chronic cough outcome (cough variant asthma cases)” value ([6]; 8 mg/mL in syrup, 1 mL vials as needed) was “the coughing problem had disappeared; also recorded: the cough was gone” and the “subjects reporting not effective” value [6, 17] was 3. The “subjects reporting partially effective” value [6, 17] was 4, the “subjects reporting very effective” value [6, 17] was 3 and the “residual antinociceptive effect duration” value ([6]; application to the throat) was 3 h. For the same compound, the “time to decrease in cough frequency” value ([6]; person, 8 mg/mL in cherry-flavored syrup) was ≤ 3 days, the irritation of eyelids [7] was “not to be irritating” and the “icy cold / pain in throat” value ([8]; DIPA-1-9 up to 12 mg per unit) was “not seen; also recorded: did not produce stinging”. For the same compound, the taste [8] was “did not have significant adverse taste”, the taste ([8]; listed as DIPA1-9) was “does not have a strong metallic taste” and the “Relative Potency to L-menthol” value [9] was 4.0. For the same compound, the inflammatory response ([10]; pure compound, 20 μL, abdominal skin of anesthetized rat) was “did not cause significant inflammatory response”, the “Redness after 20 μL applied topically to skin (scale of 0 to +++)” value ([10]; rat skin, 20 μL) was 0 and the “irritation of shaved rat skin” value ([10]; up to 20 mg/mL) was “not to be irritating”. For the same compound, the “activity on TRPV1 (selectivity)” value [11] was “selective for TRPM8 and not TRPVI and TRPA1; also recorded: not on TRPV1 or TRPA1 receptors”, the “activity on TRPA1 (selectivity)” value [12] was “selective for TRPM8 and not TRPVI and TRPA1; also recorded: not on TRPV1 or TRPA1 receptors” and the “effect on blood pressure or heart rate” value [13] was “did not affect blood pressure or heart rate”. For the same compound, the taste ([14]; 10 mg/mL spray) was “slight taste of bitterness”, the “persistence of sensation of cooling” value ([14]; 10 mg/mL spray, contents spat out) was ≥ 1 h and the “cooling of oral cavity” value ([14]; 10 mg/mL, 0.07 mL per activation, 3 activations) was “robust cooling of the oral cavity”. For the same compound, the “shaking after topical application” value [15] was “not active”.
